Reference: ChEMBL document CHEMBL1201862, “PubChem BioAssay data set” (2004)
The source made the active and inactive calls.

Assays:
[1] = target: Peroxisome proliferator-activated receptor gamma/Nuclear receptor coactivator 3 (Homo sapiens, UniProt P37231); type: functional;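 further: agonist potency for raising coactivator recruitment to the receptor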
[2] = target: Peroxisome proliferator-activated receptor gamma/Nuclear receptor coactivator 1 (Homo sapiens, UniProt P37231); type: functional;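 further: agonist potency as compounds enhance coactivator SRC-1 recruitment to PPARgamma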
[3] = target: Peroxisome proliferator-activated receptor gamma/Nuclear receptor coactivator 2 (Homo sapiens, UniProt P37231); type: functional;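 further: agonist potency for raising coactivator recruitment to the receptor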
[4] = target: T1, Rac GTPase-activating protein 1 (Homo sapiens, UniProt Q9H0H5); experiment: blockers of MgcRacGAP-driven Rac1 GTP hydrolysis – biochemical, ADP Hunter fluorescence, primary and confirmatory, confirmation (AID 624330); type: functional
T1 sequence (Q9H0H5 whole entry): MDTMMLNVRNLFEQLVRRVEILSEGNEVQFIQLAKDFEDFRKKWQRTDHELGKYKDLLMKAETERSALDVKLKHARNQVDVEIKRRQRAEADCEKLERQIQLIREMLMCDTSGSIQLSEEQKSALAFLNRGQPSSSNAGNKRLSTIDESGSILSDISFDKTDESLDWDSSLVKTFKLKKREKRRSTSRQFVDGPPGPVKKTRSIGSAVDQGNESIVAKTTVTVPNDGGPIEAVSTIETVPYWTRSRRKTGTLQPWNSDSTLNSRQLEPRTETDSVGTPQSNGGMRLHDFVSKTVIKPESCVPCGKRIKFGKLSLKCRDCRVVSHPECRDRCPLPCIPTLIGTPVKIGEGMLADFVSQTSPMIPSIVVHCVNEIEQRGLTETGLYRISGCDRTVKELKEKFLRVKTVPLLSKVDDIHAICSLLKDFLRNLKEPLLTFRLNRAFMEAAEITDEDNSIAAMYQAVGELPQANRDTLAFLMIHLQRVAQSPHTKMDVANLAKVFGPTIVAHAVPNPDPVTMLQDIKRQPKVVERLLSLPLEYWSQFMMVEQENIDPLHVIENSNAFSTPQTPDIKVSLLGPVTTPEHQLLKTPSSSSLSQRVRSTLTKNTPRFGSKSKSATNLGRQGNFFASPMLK

[5] = target: T2, Acyl-homoserine lactone acylase PvdQ (Pseudomonas aeruginosa (strain LESB58), UniProt Q9I194); experiment: PvdQ acylase enzyme activity blockers – biochemical, fluorescence, plate reader and imaging, cherry-picks, dose response (AID 493231)
T2 sequence (Q9I194 whole entry): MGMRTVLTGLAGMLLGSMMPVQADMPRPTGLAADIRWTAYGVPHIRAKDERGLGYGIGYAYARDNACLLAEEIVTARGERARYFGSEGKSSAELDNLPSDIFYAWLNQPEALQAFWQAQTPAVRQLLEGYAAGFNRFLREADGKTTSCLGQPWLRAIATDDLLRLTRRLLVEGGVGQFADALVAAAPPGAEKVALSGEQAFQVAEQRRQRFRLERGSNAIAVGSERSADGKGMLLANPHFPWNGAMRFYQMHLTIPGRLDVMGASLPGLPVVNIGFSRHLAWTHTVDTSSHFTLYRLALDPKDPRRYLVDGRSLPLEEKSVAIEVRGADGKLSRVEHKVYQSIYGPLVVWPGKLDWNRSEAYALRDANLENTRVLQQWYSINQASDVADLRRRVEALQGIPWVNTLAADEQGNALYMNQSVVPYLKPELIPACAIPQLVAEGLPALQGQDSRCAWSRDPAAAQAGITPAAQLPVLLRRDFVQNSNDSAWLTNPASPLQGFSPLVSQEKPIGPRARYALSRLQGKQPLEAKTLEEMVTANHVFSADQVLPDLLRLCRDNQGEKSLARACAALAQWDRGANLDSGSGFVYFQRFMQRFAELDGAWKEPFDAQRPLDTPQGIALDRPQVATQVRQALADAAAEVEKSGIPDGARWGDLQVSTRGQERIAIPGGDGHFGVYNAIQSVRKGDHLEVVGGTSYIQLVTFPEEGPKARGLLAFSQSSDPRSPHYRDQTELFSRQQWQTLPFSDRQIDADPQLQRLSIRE

[6] = target: T3, Voltage-gated N-type calcium channel alpha-1B subunit/Amyloid beta A4 precursor protein-binding family A member 1 (Homo sapiens, UniProt Q00975+Q02410); experiment: disruptors of Mint-PDZ/N-type channel peptide interaction – biochemical, HTRF, set 2, SAR follow-up (AID 434980); type: functional
[7] = target: T3, Voltage-gated N-type calcium channel alpha-1B subunit/Amyloid beta A4 precursor protein-binding family A member 1; experiment: disruptors of Mint-PDZ/N-type channel peptide interaction – biochemical, HTRF, SAR follow-up (AID 2489); type: functional
[8] = target: DNA dC->dU-editing enzyme APOBEC-3G (Homo sapiens, UniProt Q9HC16); experiment: Dose Response confirmation of small molecule APOBEC3G DNA Deaminase Inhibitors via a fluorescence-based single-stranded DNA deaminase assay. [Related pubchem assays (depositor defined):AID493012, AID493028]; type: functional
[9] = target: Eukaryotic translation initiation factor 4E (Mus musculus, UniProt P63073); experiment: blockers of eIF4G binding by eIF4E – biochemical, TR-FRET, dose response (AID 855); type: functional;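 further: potency for disrupting eIF4E binding to eIF4GI seen as loss of FRET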
[10] = target: T4, Short transient receptor potential channel 4 (Mus musculus, UniProt Q9QUQ5); experiment: block of DAMGO-driven TRPC4 calcium entry – cell-based, HEK293 TRPC4/mu-opioid, Fluo-4 calcium, dose response (AID 434942); type: functional;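 further: potency of inhibitors blocking the TRPC4 calcium response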
T4 sequence (Q9QUQ5 whole entry): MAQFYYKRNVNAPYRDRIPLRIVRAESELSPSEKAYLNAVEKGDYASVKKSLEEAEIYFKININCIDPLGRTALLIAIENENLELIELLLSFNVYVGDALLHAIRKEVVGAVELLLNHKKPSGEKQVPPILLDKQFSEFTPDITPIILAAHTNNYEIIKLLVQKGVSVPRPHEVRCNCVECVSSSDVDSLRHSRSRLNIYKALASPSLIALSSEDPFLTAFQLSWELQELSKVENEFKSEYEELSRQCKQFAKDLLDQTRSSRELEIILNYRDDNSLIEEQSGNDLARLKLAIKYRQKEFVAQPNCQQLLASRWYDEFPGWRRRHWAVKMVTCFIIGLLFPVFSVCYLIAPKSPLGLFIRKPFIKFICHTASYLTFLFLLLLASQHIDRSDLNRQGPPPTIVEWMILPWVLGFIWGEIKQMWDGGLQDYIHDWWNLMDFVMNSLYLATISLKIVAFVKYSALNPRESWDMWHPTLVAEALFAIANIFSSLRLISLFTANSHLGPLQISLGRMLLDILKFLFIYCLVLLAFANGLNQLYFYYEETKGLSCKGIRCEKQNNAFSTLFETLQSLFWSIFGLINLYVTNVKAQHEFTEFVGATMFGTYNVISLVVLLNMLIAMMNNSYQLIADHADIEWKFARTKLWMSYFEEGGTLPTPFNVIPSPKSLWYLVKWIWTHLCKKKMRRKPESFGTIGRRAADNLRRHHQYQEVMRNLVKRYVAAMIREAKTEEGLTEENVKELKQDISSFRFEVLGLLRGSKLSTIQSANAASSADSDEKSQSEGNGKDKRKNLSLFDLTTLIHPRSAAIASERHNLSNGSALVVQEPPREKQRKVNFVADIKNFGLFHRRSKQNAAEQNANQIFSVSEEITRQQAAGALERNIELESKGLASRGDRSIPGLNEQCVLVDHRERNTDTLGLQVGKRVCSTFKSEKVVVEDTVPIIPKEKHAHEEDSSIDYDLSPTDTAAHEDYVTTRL

[11] = NIH-3T3 fibroblast cytotoxicity, dose response, cytotoxicity control, cell-based, fluorescence, Alamar Blue, secondary assay (AID 2327); type: functional;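 further: NIH-3T3 mouse fibroblasts cultured with fluconazole at 8 µg/mL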
[12] = target: T3, Voltage-gated N-type calcium channel alpha-1B subunit/Amyloid beta A4 precursor protein-binding family A member 1; type: protein assay
[13] = target: Induced myeloid leukemia cell differentiation protein Mcl-1 (Homo sapiens, UniProt Q07820); type: functional
[14] = target: T3, Voltage-gated N-type calcium channel alpha-1B subunit/Amyloid beta A4 precursor protein-binding family A member 1; type: protein assay; remark: listed apart in the source
Protein RecA = target: T5, Protein RecA (Mycobacterium tuberculosis, UniProt P9WHJ3); experiment: Fluorescence Cell-Free Homogeneous Dose Retest to Identify Inhibitors of RecA-Intein Splicing Activity. [Related pubchem assays (depositor defined):AID2097, AID2223, AID489010, AID492950]; type: functional
T5 sequence (P9WHJ3 whole entry): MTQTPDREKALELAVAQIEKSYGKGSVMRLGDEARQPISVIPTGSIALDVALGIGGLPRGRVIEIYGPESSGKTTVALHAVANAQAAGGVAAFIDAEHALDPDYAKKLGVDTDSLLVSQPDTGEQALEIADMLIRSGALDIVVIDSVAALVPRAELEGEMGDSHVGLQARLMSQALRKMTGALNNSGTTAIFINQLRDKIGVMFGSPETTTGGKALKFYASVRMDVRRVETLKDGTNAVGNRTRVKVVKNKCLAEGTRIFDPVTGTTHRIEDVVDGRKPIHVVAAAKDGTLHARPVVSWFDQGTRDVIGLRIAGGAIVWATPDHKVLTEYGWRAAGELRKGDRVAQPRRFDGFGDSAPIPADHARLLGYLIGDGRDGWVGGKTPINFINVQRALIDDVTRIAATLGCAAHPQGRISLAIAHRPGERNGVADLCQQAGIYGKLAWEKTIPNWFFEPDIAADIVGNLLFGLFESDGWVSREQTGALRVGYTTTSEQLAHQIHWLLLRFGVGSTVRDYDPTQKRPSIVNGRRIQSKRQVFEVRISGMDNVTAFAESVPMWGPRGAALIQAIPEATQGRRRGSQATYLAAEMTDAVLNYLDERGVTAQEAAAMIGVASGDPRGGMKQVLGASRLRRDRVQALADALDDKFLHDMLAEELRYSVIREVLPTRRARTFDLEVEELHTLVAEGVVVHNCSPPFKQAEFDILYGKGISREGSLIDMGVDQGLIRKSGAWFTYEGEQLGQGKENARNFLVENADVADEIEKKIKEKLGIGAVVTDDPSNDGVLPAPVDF

[15] = fluconazole-exposed Candida albicans growth modulators – fluorescence, retest, confirmation (AID 2467); type: functional, cell-based
[16] = target: T6, Replicative DNA helicase DnaB (Mycobacterium tuberculosis, UniProt P9WMR3); experiment: DnaB intein splicing inhibitors, dose response, biochemical, cell-free fluorescence (AID 449749); type: functional
T6 sequence (P9WMR3 whole entry): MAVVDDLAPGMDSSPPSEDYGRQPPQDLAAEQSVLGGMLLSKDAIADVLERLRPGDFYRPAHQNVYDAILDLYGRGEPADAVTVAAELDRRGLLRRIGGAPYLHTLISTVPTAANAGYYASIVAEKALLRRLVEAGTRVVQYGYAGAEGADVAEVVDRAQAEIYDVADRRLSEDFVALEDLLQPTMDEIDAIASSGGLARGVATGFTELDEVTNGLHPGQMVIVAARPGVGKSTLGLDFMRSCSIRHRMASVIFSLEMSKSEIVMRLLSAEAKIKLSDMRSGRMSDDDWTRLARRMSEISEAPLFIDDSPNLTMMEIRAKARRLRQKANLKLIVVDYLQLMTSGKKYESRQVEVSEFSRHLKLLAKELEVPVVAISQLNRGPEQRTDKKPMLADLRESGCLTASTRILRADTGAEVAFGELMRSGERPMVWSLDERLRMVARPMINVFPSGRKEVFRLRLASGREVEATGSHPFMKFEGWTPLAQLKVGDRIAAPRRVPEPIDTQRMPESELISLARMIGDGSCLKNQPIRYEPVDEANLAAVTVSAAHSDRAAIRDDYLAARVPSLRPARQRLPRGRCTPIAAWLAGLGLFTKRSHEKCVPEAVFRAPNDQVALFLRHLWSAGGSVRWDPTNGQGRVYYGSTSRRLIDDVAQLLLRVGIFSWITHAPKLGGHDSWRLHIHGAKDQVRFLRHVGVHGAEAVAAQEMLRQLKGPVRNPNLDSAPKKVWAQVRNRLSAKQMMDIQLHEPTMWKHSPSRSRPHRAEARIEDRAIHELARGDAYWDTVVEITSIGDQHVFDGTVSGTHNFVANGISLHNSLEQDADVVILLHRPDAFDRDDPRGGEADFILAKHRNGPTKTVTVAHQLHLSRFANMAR

[17] = target: Melanin-concentrating hormone receptor 1 (Homo sapiens, UniProt Q99705); experiment: Late-stage fluorescence-based counterscreen for antagonists of the G-protein coupled receptor 7 (GPR7): cell-based dose response assay to identify antagonists of the melanin-concentrating hormone receptor 1 (MCHR1). [Related pubchem assays (depositor defined):AID1861, AID1880, AID1952, AID2148, AID2251, AID2257, AID485339]; type: functional;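 further: stimulated with 30 nM MCH peptide agonist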
Vero = experiment: mammalian cell viability reduction – secondary assay, cytotoxicity control for West Nile virus antiviral project, dose response (AID 1650); type: functional; settings: Chlorocebus sabaeus

T3 sequence (Q00975 whole entry): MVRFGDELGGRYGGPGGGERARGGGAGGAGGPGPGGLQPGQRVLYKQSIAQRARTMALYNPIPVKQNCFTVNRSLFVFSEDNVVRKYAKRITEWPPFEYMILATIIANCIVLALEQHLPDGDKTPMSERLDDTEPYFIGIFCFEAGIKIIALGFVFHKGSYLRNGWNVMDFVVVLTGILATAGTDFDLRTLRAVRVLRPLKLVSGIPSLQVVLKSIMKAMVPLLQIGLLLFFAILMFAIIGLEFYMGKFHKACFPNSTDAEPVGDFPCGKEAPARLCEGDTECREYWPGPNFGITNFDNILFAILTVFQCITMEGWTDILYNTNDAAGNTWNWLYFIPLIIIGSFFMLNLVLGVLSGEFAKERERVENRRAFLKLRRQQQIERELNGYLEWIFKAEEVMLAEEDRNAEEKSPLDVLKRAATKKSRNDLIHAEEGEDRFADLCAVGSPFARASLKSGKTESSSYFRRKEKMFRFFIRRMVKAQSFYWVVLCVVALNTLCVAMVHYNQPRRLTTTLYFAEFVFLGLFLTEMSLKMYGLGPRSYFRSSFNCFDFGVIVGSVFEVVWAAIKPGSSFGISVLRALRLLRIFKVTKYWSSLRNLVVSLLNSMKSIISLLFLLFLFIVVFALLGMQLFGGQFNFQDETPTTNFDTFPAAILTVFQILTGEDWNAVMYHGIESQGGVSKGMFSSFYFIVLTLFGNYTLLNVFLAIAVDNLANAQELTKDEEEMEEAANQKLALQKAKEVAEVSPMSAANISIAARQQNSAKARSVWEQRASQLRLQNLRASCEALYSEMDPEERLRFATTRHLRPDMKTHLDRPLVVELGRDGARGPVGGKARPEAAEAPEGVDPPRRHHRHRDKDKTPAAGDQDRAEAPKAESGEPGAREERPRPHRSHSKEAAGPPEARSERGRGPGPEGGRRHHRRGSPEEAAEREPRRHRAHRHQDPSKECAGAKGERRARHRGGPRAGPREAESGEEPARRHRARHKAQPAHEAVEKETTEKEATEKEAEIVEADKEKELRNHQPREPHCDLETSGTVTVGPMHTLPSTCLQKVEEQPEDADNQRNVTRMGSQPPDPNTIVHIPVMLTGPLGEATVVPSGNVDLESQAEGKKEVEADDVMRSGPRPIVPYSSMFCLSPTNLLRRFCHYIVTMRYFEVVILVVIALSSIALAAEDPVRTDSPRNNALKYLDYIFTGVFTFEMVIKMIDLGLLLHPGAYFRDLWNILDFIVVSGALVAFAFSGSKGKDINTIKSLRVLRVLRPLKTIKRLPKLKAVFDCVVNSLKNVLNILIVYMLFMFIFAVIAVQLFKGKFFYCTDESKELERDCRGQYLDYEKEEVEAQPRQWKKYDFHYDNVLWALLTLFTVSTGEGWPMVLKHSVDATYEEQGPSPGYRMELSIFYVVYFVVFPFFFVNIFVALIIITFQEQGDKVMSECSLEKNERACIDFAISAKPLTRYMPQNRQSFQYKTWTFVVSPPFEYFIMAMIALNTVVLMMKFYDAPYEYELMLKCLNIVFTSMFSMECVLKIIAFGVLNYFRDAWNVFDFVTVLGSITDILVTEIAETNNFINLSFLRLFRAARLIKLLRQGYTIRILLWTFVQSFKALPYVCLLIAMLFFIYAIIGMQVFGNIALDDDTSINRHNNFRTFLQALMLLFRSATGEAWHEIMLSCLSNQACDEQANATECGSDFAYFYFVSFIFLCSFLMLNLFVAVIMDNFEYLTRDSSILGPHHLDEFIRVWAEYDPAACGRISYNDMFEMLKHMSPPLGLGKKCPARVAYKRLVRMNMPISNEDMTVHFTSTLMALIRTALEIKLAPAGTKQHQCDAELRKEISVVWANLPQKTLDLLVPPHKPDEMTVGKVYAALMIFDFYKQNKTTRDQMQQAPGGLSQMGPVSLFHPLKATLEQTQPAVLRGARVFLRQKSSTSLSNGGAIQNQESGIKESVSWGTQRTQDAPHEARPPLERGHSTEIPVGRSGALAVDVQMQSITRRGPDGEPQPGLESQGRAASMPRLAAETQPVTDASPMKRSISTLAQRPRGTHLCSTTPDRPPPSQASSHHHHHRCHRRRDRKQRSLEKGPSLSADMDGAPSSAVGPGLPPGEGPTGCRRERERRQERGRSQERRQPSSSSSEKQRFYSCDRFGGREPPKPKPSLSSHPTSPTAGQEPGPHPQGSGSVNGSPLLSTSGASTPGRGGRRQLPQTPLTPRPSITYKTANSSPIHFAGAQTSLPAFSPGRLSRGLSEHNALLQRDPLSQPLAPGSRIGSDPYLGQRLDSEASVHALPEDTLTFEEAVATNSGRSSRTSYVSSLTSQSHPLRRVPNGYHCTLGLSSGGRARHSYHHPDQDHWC
T3 sequence (Q02410 whole entry): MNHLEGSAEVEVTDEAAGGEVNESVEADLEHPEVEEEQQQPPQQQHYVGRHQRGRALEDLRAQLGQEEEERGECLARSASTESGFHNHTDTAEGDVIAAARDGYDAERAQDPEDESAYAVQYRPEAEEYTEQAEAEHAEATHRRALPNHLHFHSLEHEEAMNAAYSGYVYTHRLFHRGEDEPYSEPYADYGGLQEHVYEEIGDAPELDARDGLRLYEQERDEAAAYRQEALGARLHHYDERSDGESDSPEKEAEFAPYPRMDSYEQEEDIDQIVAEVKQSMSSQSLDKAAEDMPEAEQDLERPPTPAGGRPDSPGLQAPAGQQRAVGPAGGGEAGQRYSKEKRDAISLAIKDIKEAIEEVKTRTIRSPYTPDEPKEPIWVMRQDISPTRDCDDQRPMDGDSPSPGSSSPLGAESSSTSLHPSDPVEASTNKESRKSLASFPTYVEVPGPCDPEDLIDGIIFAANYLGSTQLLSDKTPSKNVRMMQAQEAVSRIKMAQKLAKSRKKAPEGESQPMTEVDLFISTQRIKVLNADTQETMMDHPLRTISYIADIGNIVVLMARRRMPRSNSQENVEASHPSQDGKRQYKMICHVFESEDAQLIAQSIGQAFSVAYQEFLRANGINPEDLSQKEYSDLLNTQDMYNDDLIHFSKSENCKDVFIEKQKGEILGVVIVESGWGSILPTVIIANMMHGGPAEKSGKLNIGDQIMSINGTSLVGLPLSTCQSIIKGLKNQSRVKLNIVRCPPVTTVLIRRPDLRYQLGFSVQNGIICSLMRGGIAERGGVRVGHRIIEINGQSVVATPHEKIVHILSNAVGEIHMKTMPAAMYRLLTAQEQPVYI
Melanin-concentrating hormone receptor 1, sequence (Q99705 whole entry): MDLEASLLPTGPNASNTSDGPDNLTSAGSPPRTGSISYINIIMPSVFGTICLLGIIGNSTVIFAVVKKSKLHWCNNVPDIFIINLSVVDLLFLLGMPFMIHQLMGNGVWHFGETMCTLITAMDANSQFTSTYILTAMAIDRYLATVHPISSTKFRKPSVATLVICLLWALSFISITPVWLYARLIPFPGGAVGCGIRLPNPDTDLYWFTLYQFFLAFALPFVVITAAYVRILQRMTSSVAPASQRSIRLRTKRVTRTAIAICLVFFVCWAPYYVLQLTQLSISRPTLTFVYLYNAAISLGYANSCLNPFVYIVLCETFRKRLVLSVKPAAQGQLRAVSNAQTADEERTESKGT
Eukaryotic translation initiation factor 4E, sequence (P63073 whole entry): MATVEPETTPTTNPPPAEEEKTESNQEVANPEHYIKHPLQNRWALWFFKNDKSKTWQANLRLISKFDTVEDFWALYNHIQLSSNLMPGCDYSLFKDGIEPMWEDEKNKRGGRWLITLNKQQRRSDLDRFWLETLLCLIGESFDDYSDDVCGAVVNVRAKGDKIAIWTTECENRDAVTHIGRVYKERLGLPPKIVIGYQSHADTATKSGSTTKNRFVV
Induced myeloid leukemia cell differentiation protein Mcl-1, sequence (Q07820 whole entry): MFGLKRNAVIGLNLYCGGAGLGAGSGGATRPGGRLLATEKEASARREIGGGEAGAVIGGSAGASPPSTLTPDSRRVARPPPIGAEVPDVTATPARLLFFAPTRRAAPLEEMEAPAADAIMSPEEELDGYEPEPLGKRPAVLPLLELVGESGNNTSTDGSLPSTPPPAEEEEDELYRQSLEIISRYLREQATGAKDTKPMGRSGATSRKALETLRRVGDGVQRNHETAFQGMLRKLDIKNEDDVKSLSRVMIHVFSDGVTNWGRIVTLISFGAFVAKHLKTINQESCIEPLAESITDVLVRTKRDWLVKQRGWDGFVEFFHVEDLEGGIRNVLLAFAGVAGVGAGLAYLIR
DNA dC->dU-editing enzyme APOBEC-3G, sequence (Q9HC16 whole entry): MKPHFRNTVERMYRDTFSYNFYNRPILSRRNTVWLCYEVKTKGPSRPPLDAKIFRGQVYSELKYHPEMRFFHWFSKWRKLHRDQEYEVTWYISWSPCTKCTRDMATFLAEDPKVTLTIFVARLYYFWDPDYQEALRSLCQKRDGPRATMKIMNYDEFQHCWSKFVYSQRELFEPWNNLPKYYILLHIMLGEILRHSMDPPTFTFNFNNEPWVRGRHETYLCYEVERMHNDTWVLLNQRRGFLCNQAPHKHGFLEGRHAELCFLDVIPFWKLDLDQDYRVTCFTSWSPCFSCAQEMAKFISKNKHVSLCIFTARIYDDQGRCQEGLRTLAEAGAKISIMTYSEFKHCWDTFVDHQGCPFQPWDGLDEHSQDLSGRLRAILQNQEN

## O=C1c2ccccc2C(=O)C1c1ccc(O)cc1
[1]
  EC50: > 79.4 µM (not active)
[2]
  EC50: > 79.4 µM (not active)
[3]
  EC50: > 79.4 µM (not active)
[4]
  IC50: 172 µM (active)

## O=C(NC1CCCCC1)c1cc(Cl)ccc1[N+](=O)[O-]
[5]
  AC50: 69.3 µM (active)

## Cc1cc(NC(=O)c2ccc([N+](=O)[O-])cc2Cl)no1
[5]
  AC50: > 100 µM (inactive)

## O=C(c1cc(-c2ccco2)nc2ccccc12)N1CCCC(c2ccccc2)C1 (stereo not drawn)
[6]
  IC50: > 56.8 µM (inactive)
[7]
  IC50: > 56.8 µM (inactive)

## O=S(=O)(Cc1ccccc1)N=Nc1c(O)[nH]c2ccc(Br)cc12
[8]
  IC50: 44.3 µM (active)

## O=C(Nc1cccnc1)c1cc2c(ccc3ccccc32)o1
[9]
  IC50: > 64 µM (inactive)

## O=CN(c1ccccc1)c1ccc2ccccc2c1
[5]
  AC50: 2.68 µM (active)

## COc1ccc(C(Nc2ccccn2)c2c(NC(=O)c3ccco3)sc(C)c2C)cc1OC (stereo not drawn)
[10]
  EC50: 1.19 µM (active)

## CCCc1ccc(/C=C2\C(=O)c3ccccc3C(O)=C2C(=O)OCC)cc1
[11]
  EC50: 56.4 µM (inconclusive)
[12]
  IC50: 5.12 µM (active)
[13]
  IC50: 2.32 µM (not active)
[14]
  IC50: 9.62 µM (active)
Protein RecA
  EC50: 8.95 µM (active)
[6]
  IC50: 5.7 µM (active)
[15]
  EC50: > 38 µM (not active)
[16]
  AC50: 5.54 µM (active)
[7]
  IC50: 7.19 µM (active)

## COc1ccc(Oc2c(C#N)cnn(-c3ccc(C(C)C)cc3)c2=O)cc1
[17]
  IC50: 7.5 µM (active)

## COc1ccc(NC(=O)CSc2ccc3c4c(cccc24)C(=O)c2ccccc2-3)cc1
[1]
  EC50: > 79.4 µM (not active)
Vero
  CC50: 71.7 µM (active)
[2]
  EC50: > 79.4 µM (not active)
[3]
  EC50: > 79.4 µM (not active)

## COc1ccc(Oc2c(Cl)cnn(-c3cccc(OC)c3)c2=O)cc1
[17]
  IC50: 3.4 µM (active)

## Nc1cc(=O)nc(SCC(=O)N2CCN(c3ccccc3)CC2)n1-c1ccc(F)cc1
[10]
  EC50: 6.68 µM (active)
